Test results published in PubChem BioAssay AID1259426 (Fisher Drug Discovery Resource Center, 2018).
Activity calls are given as the source filed them.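 How the source made its calls: active means EC50 under a set limit in control cells lacking the mosquito receptor, marking a fluorescence artifact; inactive means the rest.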

biological target: HEK293 Galpha15/GCaMP6s without NPYLR7, calcium fluorescence; assay: nonspecific activation in parental Galpha15/GCaMP6s cells – cell-based, HEK293 lacking NPYLR7, counter-screen for mosquito NPYLR7 agonist project, dose response (AID 1259426);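 further: potency for a rise in fluorescence over baseline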

Compound	EC50
COCCCN1COc2ccc3c(c2C1)O/C(=C\c1cc(OC)c(OC)c(OC)c1)C3=O	11.4 µM
O=C(c1snc2c(=O)n(Cc3ccccc3)c(=O)[nH]c12)N1CCSCC1	> 20 µM (inactive)
CCOC(=O)C1CCN(C(=O)CC(c2cccc(C(F)(F)F)c2)c2c[nH]c3c(CC)cccc23)CC1 (stereo unspecified)	> 20 µM (inactive)
CN(C)c1ccc(/C=C2/SC(=S)N(CC(=O)O)C2=O)cc1	6.89 µM
CCN1C(=Cc2cc(C)[n+](CC3CCCO3)c(C)c2)Sc2ccccc21 (stereo unspecified)	> 20 µM (inactive)
CN1C=CC(=C/C=C2/C=Nc3ccccc32)C=C1	9.41 µM
N#C/C(=C\c1ccc(O)c(O)c1)C(=O)Nc1ccccc1	> 20 µM (inactive)
CCN(CC)c1ccc(/C=C2\SC(=S)N(CC(=O)O)C2=O)c(O)c1	1.15 µM
COc1ccc2c(C)nc(N=C(N)N)nc2c1	> 20 µM (inactive)
Cc1ccc(/C=C2/Oc3cc(O)ccc3C2=O)s1	17.2 µM
COc1ccc(OC)c(CCNc2nc3cnc(-c4ccc(Cl)cc4)cc3n2C)c1	> 20 µM (inactive)
O=C(Cc1ccc2c(c1)CCC2)NCC1CCN(c2ccccc2)C1 (stereo unspecified)	> 20 µM (inactive)
COc1ccc(OC)c(CCNc2nc3cnc(-c4cccc5ccccc45)cc3n2C)c1	> 20 µM (inactive)
N#CC(C#N)=Cc1ccc(O)c(O)c1	> 20 µM (inactive)
CCOC(=O)c1ccc(N=c2oc3cc(O)ccc3cc2-c2nc3ccccc3[nH]2)cc1	0.204 µM
O=C1C(=Cc2ccccc2O)NC(=S)N1Cc1ccco1	0.955 µM
N#C/C(=C\c1ccc(O)c(O)c1)C(=O)NCCCc1ccccc1	> 20 µM (inactive)
O=C1c2cccc3c(NCC(O)CCl)ccc(c23)C(=O)N1c1ccccc1 (stereo unspecified)	< 0.039 µM
C[C@H]1O[C@H](O[C@@H]2[C@@H](O[C@H]3CC[C@@]4(C)C(CC[C@]5(C)C4CC=C4[C@@H]6CC(C)(C)CC[C@]6(C(=O)O)CC[C@]45C)[C@]3(C)CO)OC[C@@H](O)[C@H]2O)[C@@H](O)[C@H](O)[C@@H]1O (stereo partly specified)	9.92 µM
COc1cccc(CNC2CC2)c1OCc1nc(CO)cs1	> 20 µM (inactive)
N#C/C(=C/c1ccc(N2CCCCC2)o1)c1cccc(F)c1	> 20 µM (inactive)

Compound	EC50
FC(F)(F)c1cc(-c2cccs2)nc2ncnn12	18.3 µM
Cc1[nH]c(/C=C2\C(=O)Nc3ccccc32)c(C)c1CCC(=O)O	< 0.039 µM
O=[N+]([O-])c1cc(S(=O)(=O)Nc2cc(Cl)ccc2F)ccc1F	> 20 µM (inactive)
O=C(O)CN1C(=O)/C(=C\c2cc([N+](=O)[O-])cc(Br)c2O)SC1=S	1.07 µM
CC(C)c1nc(NC(=O)c2[nH]ncc2Br)n(C)n1	1.5 µM
CCCCCN=C(N)NN=Cc1c[nH]c2ccc(OC)cc12	> 20 µM (inactive)
COc1ccc(Cl)cc1Nc1nnc(-c2cc3c(ccc4ccccc43)oc2=O)s1	> 20 µM (inactive)
C=CCNc1ccc2c3c(cccc13)C(=O)N(c1ccccc1)C2=O	0.0583 µM
Cc1cc(C=C2Sc3ccccc3N2C)cc(C)[n+]1-c1ccccc1	1.51 µM
CC(C)(C)c1cnc(CSc2cnc(NC(=O)C3CCNCC3)s2)o1	> 20 µM (inactive)
O=c1oc2c(CN3CC4CC(C3)c3cccc(=O)n3C4)c(O)ccc2cc1-c1nc2ccccc2s1 (stereo unspecified)	13.4 µM
Cc1nc2ncccc2cc1C(=O)N1CCC2(CCNC(=O)CC2)CC1	> 20 µM (inactive)
CC(=O)OC(C)C[N+](C)(C)C (stereo unspecified)	> 20 µM (inactive)
CCN1/C(=C/C2=CC(=O)CC(C)(C)C2)Sc2ccccc21	3.9 µM
CCCCN(C)C1=CC2=CC(=C(C#N)C#N)CCC2CC1 (stereo unspecified)	< 0.039 µM
CC(=O)Oc1ccc(Cn2c(C)c(C(=O)NCc3ccc(C#N)cc3)sc2=O)cc1	> 20 µM (inactive)
COc1cc(C=C(C#N)C(=O)OC(C)C)cc(Cl)c1O	> 20 µM (inactive)
CCN1CCN(Cc2c(O)cc(C)c3c2O/C(=C\c2ccco2)C3=O)CC1	9.72 µM
Cc1ccc(OCCNC(=O)N2CCN(S(=O)(=O)c3ccccc3Cl)CC2)c(C)c1	> 20 µM (inactive)
COc1ccc(/C=C2\Oc3c(ccc4c3CN(CC3CCCO3)CO4)C2=O)cc1 (stereo unspecified)	9.33 µM
